This assay has as its target T1, human TLR7 (Homo sapiens, UniProt Q9NYK1).
T1 construct: host or cells: HEK-Blue TLR7 cells (engineered human embryonic kidney cells)
T1 sequence (Q9NYK1 27-1049): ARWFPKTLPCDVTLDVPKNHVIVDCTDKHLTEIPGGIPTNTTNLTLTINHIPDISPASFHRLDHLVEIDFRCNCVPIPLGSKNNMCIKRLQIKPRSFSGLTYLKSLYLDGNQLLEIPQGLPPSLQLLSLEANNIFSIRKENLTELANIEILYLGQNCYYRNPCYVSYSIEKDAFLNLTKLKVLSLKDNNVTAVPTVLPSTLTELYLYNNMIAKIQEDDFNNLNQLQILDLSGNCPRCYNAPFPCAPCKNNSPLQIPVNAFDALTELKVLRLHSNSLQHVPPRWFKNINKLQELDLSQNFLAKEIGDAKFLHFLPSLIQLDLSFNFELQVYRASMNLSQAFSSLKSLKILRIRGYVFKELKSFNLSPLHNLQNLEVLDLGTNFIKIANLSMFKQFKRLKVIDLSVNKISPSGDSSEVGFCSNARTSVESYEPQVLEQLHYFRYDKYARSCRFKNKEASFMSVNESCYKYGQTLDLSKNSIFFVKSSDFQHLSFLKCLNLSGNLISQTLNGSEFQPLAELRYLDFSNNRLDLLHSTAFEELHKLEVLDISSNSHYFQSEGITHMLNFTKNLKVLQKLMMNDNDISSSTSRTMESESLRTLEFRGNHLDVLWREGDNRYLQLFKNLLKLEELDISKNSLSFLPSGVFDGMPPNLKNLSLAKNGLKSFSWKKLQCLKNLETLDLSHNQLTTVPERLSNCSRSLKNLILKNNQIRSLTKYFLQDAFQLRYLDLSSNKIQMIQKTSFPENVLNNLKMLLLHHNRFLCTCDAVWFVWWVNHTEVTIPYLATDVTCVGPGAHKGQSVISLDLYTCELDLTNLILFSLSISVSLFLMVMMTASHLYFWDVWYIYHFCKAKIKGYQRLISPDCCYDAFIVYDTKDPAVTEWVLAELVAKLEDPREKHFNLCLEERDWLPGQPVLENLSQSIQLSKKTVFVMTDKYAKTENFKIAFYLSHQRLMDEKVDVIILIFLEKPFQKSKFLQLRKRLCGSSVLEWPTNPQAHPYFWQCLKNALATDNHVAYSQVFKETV
The assay is described as follows: Human TLR7 agonist activity assay (HEK-Blue TLR7 SEAP reporter). As to conditions: HEK-Blue TLR7 cells, 18 h treatment, in some instances average of plural assays, read-out: hTLR7 EC50. The format is cell-based.

pEC50: −log10 of the molar value.

As a reminder, the pEC50 is −log10 of the EC50, conventionally taken in molar units.

Procedure: Human TLR7 Agonist Activity Assay
HEK-Blue™ TLR7 cells were added to each well of a 384-well tissue-culture plate (15,000 cells per well) and incubated 16-18 h at 37° C., 5% CO2. Compounds (100 nl) were dispensed into wells containing the HEK-Blue™ TLR cells and the treated cells were incubated at 37° C., 5% CO2. After 18 h treatment ten microliters of freshly-prepared Quanti-Blue™ reagent (Invivogen) was added to each well, incubated for 30 min (37° C., 5% CO2) and SEAP levels measured using an Envision plate reader (OD=620 nm).

In the case of `CCC[C@@H](CCO)Nc1nc(N)nc2cnn(Cc3ccc(CN4CC(O)C4)cc3)c12` [Compound 878], the pEC50 is 5.96.

On to `CCC[C@@H](CCO)Nc1nc(N)nc2cnn(Cc3ccc(CN4CCN(CCO)CC4)cc3)c12` [Compound 879], for which the pEC50 was 6.43.

(Values after patent US11554120B2, “1H-pyrazolo[4,3-d]pyrimidine compounds as toll-like receptor 7 (TLR7) agonists and methods and uses therefor” (BRISTOL-MYERS SQUIBB COMPANY, priority 2018, dated 2023).)
